The subject of one data set is SD rats. Put plainly: Diuretic efficacy of ROMK inhibitors in SD rats. The data set is classed as in vivo. The note with it: 0.03 and 0.1 mg/kg i.g. once, after urine collection. On the procedure:
The diuretic efficacy of compound 1 and positive control drug of ROMK inhibitor on SD rats was evaluated.
Male SD rats were purchased from SINO-BRITSH SIPPR/BK LAB. ANIMAL LTD., CO (Shanghai, China, Certificate No. 2008001647752, License SCXK (Shanghai) 2013-0016). The rats were 120-130 g, and fed at 5/cage, in a 12/12 hours light/dark cycle regulation, at a constant temperature of 23±1° C., humidity of 50-60%, and free access to water and food. The male SD rats were acclimated to this condition for 7 days before their use in the diuresis experiment.
The experiment was carried out according to the method disclosed in PCT Patent Application Publication WO2010129379A1. After adaptive feeding, the rats were placed in metabolism cages and fasted overnight. The rats were weighed and randomly divided into the following groups: blank control group, compound 1 tested drug 0.03 mg/kg group and 0.1 mg/kg group, and the positive control group 0.03 mg/kg and group 0.1 mg/kg, with 10 rats for each group. Each rat was intragastrically administered each compound (ig, 1 ml/kg). The rats in the blank control group were fed with the corresponding solvent. After intragastric administration, the rats were placed in the normal cage. After 30 min, 25 ml/kg normal saline was given. Rats were put into the metabolic cages, and fasting for food and water began inmediately. The total urine volume in 4 h was collected and measured. The urinary sodium and urinary potassium excretion in 4 h were also measured. The orbital serum was collected after the collection of urine to test the serum sodium and serum potassium concentrations.
The experimental data were expressed as mean±standard deviation (S.D.). The data was statistically compared using the t test of excel.

Data set [1] in a line: Solubility observed when preparing the drugs for the diuresis experiment. The data set is classed as physicochemical. Conditions: preparation of the dosing liquid, observation in words. The text has this:
In this experiment, the solubility of the test compound I was very good. There was no delamination phenomenon. […] After fully grinding, the solubility improved. […] Moreover, the effect was dose-dependent for each dose of the test compound I and the positive control drug.

Our source for the serum potassium, serum sodium and solubility values is US10759788B2, “Pharmaceutical uses of pyridine carboxamide derivatives” (Jiangsu Hengrui Medicine Co., Ltd., priority 2014, dated 2020).

“Also recorded” adds a separate entry of the source.

Consider `COc1cc(C(=O)NC2CCN(C[C@H](O)c3ccc4c(c3C)COC4=O)CC2)ncc1C#N` [Example 1, (R)-5-cyano-N-(1-(2-hydroxy-2-(4-methyl-1-oxo-1,3-dihydroisobenzofuran-5-yl)ethyl)piperidin-4-yl)-4-methoxypicolinamide], for which the serum potassium entry with SD rats is given as “changed a little”; with SD rats (listed as Compound I), “no effect”. Also, the serum sodium result in the data set on SD rats was “changed a little”. Besides, in data set [1], the solubility result was “very good”.

For `Cc1cc(C(=O)NC2CCN(C[C@H](O)c3ccc4c(c3C)COC4=O)CC2)ncc1C#N` [positive control drug], in the data set with SD rats, the serum potassium result is on record as “changed a little; also recorded: no effect” and the serum sodium entry is “changed a little”. In addition, in data set [1], the solubility result was “poor solubility”.
